Like-named read-outs stand apart in the source and are kept apart here.
How the values were obtained:
[1] = biological target: T1, human somatostatin receptor subtype 5 (Homo sapiens, UniProt P35346); experiment: cAMP assay for SST5R (inhibition of cAMP in CHO-K1 cells); format: cell-based; settings: for EC50: inhibition of cAMP via human SST5 receptor, read-out: SST5 potency; for Fold selectivity for SST5 vs SST2: class symbols, SST5 receptor over SST2 receptor
T1 construct: expressed in transfected cells
T1 sequence (P35346 whole entry): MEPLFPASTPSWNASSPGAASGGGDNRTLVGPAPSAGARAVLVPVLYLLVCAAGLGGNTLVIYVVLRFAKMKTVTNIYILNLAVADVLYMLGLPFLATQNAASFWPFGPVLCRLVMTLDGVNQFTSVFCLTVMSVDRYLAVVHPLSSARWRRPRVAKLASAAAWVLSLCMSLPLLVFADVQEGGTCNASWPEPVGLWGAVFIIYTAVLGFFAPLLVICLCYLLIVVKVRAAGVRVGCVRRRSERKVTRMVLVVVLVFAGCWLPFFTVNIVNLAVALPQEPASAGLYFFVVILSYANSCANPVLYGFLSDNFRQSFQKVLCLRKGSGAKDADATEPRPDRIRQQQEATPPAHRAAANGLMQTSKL
Summary of the method: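 CHO-K1 cells stably expressing human SSTR5 were treated 20 min at 37 °C with compounds plus 1.6 μM NKH477 in HBSS, 0.5 mM HEPES pH 7.4, 0.1% BSA, 0.2 mM IBMX. Lysate cAMP measured by HTRF against a standard curve; EC50 from cAMP-versus-concentration plots.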

[2] = biological target: T2, human somatostatin receptor subtype 2 (Homo sapiens, UniProt P30874); experiment: cAMP assay for SST2R (inhibition of cAMP in CHO-K1 cells); format: cell-based; settings: Table B; inhibition of cAMP via human SST2 receptor; read-out: SST2 potency
T2 construct: expressed in transfected cells
T2 sequence (P30874 whole entry): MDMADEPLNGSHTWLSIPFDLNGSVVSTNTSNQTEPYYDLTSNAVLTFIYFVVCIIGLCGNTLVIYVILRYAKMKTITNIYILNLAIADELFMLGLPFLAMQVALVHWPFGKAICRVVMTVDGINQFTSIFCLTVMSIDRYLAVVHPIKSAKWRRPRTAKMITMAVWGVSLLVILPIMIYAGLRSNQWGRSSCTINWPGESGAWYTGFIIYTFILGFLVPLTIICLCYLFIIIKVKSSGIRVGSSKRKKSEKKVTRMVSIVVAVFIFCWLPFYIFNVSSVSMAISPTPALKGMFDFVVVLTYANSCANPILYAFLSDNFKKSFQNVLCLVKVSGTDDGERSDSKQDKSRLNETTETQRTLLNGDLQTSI
Summary of the method: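 CHO-K1 cells stably expressing human SSTR2, plated 4 days prior, treated 20 min at 37° C with 1.6 μM NKH477 plus compound dilutions in HBSS/HEPES pH 7.4/0.1% BSA/0.2 mM IBMX. Lysate cAMP measured by HTRF against standard curve; EC50 from concentration-response.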

SMILES	EC50 ([1]; Table A) [nM]	Fold selectivity for SST5 vs SST2 ([1]; Table B)	EC50 ([1]; Table B) [nM]	EC50 [2] [nM]
CCOC(=O)COc1ncc(C(=O)NC2CCC(F)(F)CC2)c(N2CC[C@H](N)C2)c1-c1cc(F)cc(F)c1 [1-200, ethyl 2-({4-[(3S)-3-aminopyrrolidin-1-yl]-5-[(4,4-difluorocyclohexyl)carbamoyl]-3-(3,5-difluorophenyl)pyridin-2-yl}oxy)acetate]	< 10	+++ (+++=>500)	< 10	100 to 1000
CCOC(=O)CCOc1ncc(C(=O)NC2CCC(F)(F)CC2)c(N2CC[C@H](N)C2)c1-c1cc(F)cc(F)c1 [1-201, ethyl 3-({4-[(3S)-3-aminopyrrolidin-1-yl]-5-[(4,4-difluorocyclohexyl)carbamoyl]-3-(3,5-difluorophenyl)pyridin-2-yl}oxy)propanoate]	< 10	+++ (+++=>500)	< 10	> 1000
CCOC(=O)CCCOc1ncc(C(=O)NC2CCC(F)(F)CC2)c(N2CC[C@H](N)C2)c1-c1cc(F)cc(F)c1 [1-202, ethyl 4-({4-[(3S)-3-aminopyrrolidin-1-yl]-5-[(4,4-difluorocyclohexyl)carbamoyl]-3-(3,5-difluorophenyl)pyridin-2-yl}oxy)butanoate]	< 10	+++ (+++=>500)	< 10	> 1000
CCOc1cc(-c2c(C(F)(F)F)ncc(C(=O)N[C@@H](C)C3CC3)c2N2CC[C@](C)(N)C2)ccn1 [1-206, 4-[(3S)-3-amino-3-methylpyrrolidin-1-yl]-N-[(1S)-1-cyclopropylethyl]-2′-ethoxy-2-(trifluoromethyl)-[3,4′-bipyridine]-5-carboxamide]	< 10	+++ (+++=>500)	< 10	> 1000
COc1cc(-c2c(C(F)(F)F)ncc(C(=O)N[C@@H](C)C3CC3)c2N2CC[C@](C)(N)C2)ccn1 [1-208, 4-[(3S)-3-amino-3-methylpyrrolidin-1-yl]-N-[(1S)-1-cyclopropylethyl]-2′-methoxy-2-(trifluoromethyl)-[3,4′-bipyridine]-5-carboxamide]	< 10	+++ (+++=>500)	< 10	100 to 1000
C[C@]1(N)CCN(c2c(C(=O)NC3CCCCC3)cnc(C(F)(F)F)c2-c2cc(F)cc(F)c2)C1 [1-210, 4-[(3S)-3-amino-3-methylpyrrolidin-1-yl]-N-cyclohexyl-5-(3,5-difluorophenyl)-6-(trifluoromethyl)pyridine-3-carboxamide]	< 10	+++ (+++=>500)	< 10	10 to 100
C[C@H](NC(=O)c1cnc(C(F)(F)F)c(-c2cc(Cl)cc(Cl)c2)c1N1CC[C@H](N)C1)C1CC1 [1-215, 4-[(3S)-3-aminopyrrolidin-1-yl]-N-[(1S)-1-cyclopropylethyl]-5-(3,5-dichlorophenyl)-6-(trifluoromethyl)pyridine-3-carboxamide]	< 10	+++ (+++=>500)	< 10	100 to 1000
C[C@]1(N)CCN(c2c(C(=O)NC34CC(F)(C3)C4)cnc(C(F)(F)F)c2-c2cc(F)cc(F)c2)C1 [1-217, 4-[(3S)-3-amino-3-methylpyrrolidin-1-yl]-5-(3,5-difluorophenyl)-N-{3-fluorobicyclo[1.1.1]pentan-1-yl}-6-(trifluoromethyl)pyridine-3-carboxamide]	< 10	+++ (+++=>500)	< 10	100 to 1000
COc1ncc(C(=O)N[C@@H](C)C(F)(F)F)c(N2CC[C@](C)(N)C2)c1-c1cc(F)cc(Cl)c1 [1-228, 4-[(3S)-3-amino-3-methylpyrrolidin-1-yl]-5-(3-chloro-5-fluorophenyl)-6-methoxy-N-[(2S)-1,1,1-trifluoropropan-2-yl]pyridine-3-carboxamide]	< 10	+++ (+++=>500)	< 10	10 to 100
COc1ncc(C(=O)N[C@@H](C)C2CC2)c(N2CC[C@](C)(N)C2)c1-c1cc(F)cc(Cl)c1 [1-229, 4-[(3S)-3-amino-3-methylpyrrolidin-1-yl]-5-(3-chloro-5-fluorophenyl)-N-[(1S)-1-cyclopropylethyl]-6-methoxypyridine-3-carboxamide]	< 10	+++ (+++=>500)	< 10	10 to 100
C[C@]1(N)CCN(c2c(C(=O)NC34CC(F)(C3)C4)cnc(C#N)c2-c2cc(F)cc(F)c2)C1 [1-234, 4-[(3S)-3-amino-3-methylpyrrolidin-1-yl]-6-cyano-5-(3,5-difluorophenyl)-N-{3-fluorobicyclo[1.1.1]pentan-1-yl}pyridine-3-carboxamide]	< 10	+++ (+++=>500)	< 10	100 to 1000

Continued, values first:

EC50 ([1]; Table A) [nM]	Fold selectivity for SST5 vs SST2 ([1]; Table B)	EC50 ([1]; Table B) [nM]	EC50 [2] [nM]	SMILES
< 10	++ (++=100 to 499)	< 10	10 to 100	C[C@H](NC(=O)c1cnc(C(F)(F)F)c(-c2cc(F)cc(Cl)c2)c1N1CC[C@H](N)C1)C1CC1 [1-198, 4-[(3S)-3-aminopyrrolidin-1-yl]-5-(3-chloro-5-fluorophenyl)-N-[(1S)-1-cyclopropylethyl]-6-(trifluoromethyl)pyridine-3-carboxamide]
< 10	+++ (+++=>500)	< 10	100 to 1000	C[C@H](NC(=O)c1cnc(C(F)(F)F)c(-c2cc(F)cc(F)c2)c1N1CC[C@H](N)C1)C1CC1 [1-199, 4-[(3S)-3-aminopyrrolidin-1-yl]-N-[(1S)-1-cyclopropylethyl]-5-(3,5-difluorophenyl)-6-(trifluoromethyl)pyridine-3-carboxamide]
< 10	+++ (+++=>500)	< 10	100 to 1000	C[C@H](NC(=O)c1cnc(C(F)(F)F)c(-c2cc(F)cc(F)c2)c1N1CC[C@H](N)C1)C(F)(F)F [1-212, 4-[(3S)-3-aminopyrrolidin-1-yl]-5-(3,5-difluorophenyl)-6-(trifluoromethyl)-N-[(2S)-1,1,1-trifluoropropan-2-yl]pyridine-3-carboxamide]
< 10	+++ (+++=>500)	< 10	100 to 1000	N[C@H]1CCN(c2c(C(=O)NC3CCCCC3)cnc(C(F)(F)F)c2-c2cc(F)cc(F)c2)C1 [1-213, 4-[(3S)-3-aminopyrrolidin-1-yl]-N-cyclohexyl-5-(3,5-difluorophenyl)-6-(trifluoromethyl)pyridine-3-carboxamide]
< 10	+++ (+++=>500)	< 10	> 1000	N[C@H]1CCN(c2c(C(=O)NC3CCC(F)(F)CC3)cnc(C(F)(F)F)c2-c2cc(F)cc(F)c2)C1 [1-214, 4-[(3S)-3-aminopyrrolidin-1-yl]-N-(4,4-difluorocyclohexyl)-5-(3,5-difluorophenyl)-6-(trifluoromethyl)pyridine-3-carboxamide]
< 10	+++ (+++=>500)	< 10	> 1000	N[C@H]1CCN(c2c(C(=O)NC34CC(F)(C3)C4)cnc(C(F)(F)F)c2-c2cc(F)cc(F)c2)C1 [1-216, 4-[(3S)-3-aminopyrrolidin-1-yl]-5-(3,5-difluorophenyl)-N-{3-fluorobicyclo[1.1.1]pentan-1-yl}-6-(trifluoromethyl)pyridine-3-carboxamide]
< 10	++ (++=100 to 499)	< 10	100 to 1000	CC(NC(=O)c1cnc(C#N)c(-c2cc(F)cc(F)c2)c1N1CC[C@H](N)C1)C(F)(F)F (stereo partly drawn) [1-226, 4-[(3S)-3-aminopyrrolidin-1-yl]-6-cyano-5-(3,5-difluorophenyl)-N-(1,1,1-trifluoropropan-2-yl)pyridine-3-carboxamide]
< 10	++ (++=100 to 499)	< 10	100 to 1000	Cc1ncc(C(=O)N[C@@H](C)C(F)(F)F)c(N2CC[C@H](N)C2)c1-c1cc(F)cc(F)c1 [1-230, 4-[(3S)-3-aminopyrrolidin-1-yl]-5-(3,5-difluorophenyl)-6-methyl-N-[(2S)-1,1,1-trifluoropropan-2-yl]pyridine-3-carboxamide]
< 10	+++ (+++=>500)	< 10	100 to 1000	Cc1ncc(C(=O)N[C@@H](C)C(F)(F)F)c(N2CC[C@H](N)C2)c1-c1cc(F)cc(OC(F)F)c1 [1-231, 4-[(3S)-3-aminopyrrolidin-1-yl]-5-[3-(difluoromethoxy)-5-fluorophenyl]-6-methyl-N-[(2S)-1,1,1-trifluoropropan-2-yl]pyridine-3-carboxamide]
< 10	+++ (+++=>500)	< 10	> 1000	Cc1ncc(C(=O)N[C@@H](C)C(F)(F)F)c(N2CC[C@H](N)C2)c1-c1cccc(OC(F)F)c1 [1-232, 4-[(3S)-3-aminopyrrolidin-1-yl]-5-[3-(difluoromethoxy)phenyl]-6-methyl-N-[(2S)-1,1,1-trifluoropropan-2-yl]pyridine-3-carboxamide]
< 10	+++ (+++=>500)	< 10	> 1000	Cc1ncc(C(=O)NC2CCC(F)(F)CC2)c(N2CC[C@H](N)C2)c1-c1cc(F)cc(F)c1 [1-233, 4-[(3S)-3-aminopyrrolidin-1-yl]-N-(4,4-difluorocyclohexyl)-5-(3,5-difluorophenyl)-6-methylpyridine-3-carboxamide]
